Molecules are shown by their SMILES. Values after ≈ are worked out from the molar mass of the structure shown. Bounds are passed on as bounds.

For the assay, the system named is Mycobacterium tuberculosis H37Rv. The assay can be described thus: Mycobacterium tuberculosis H37Rv Inhibition Assay (Whole Cell Assay). Type of assay: cell-based. The note with it: ATCC 25618 / H37Rv, H37Rv strain (ATCC25618), Middlebrook 7H9, six days at 37° C., resazurin fluorescence after 48 hours. In general terms: Alamar Blue is a resazurin reagent that responds to reducing activity.
Turning to `CCc1ccc([C@H]2C[C@@H](C(F)(F)F)n3ncc(C(=O)NCc4cccc(OC)c4)c3N2)cc1` (relative stereo) [Example 8, Cis-5-(4-ethylphenyl)-N-{[3-(methyloxy)phenyl]methyl}-7-(trifluoromethyl)-4,5,6,7-tetrahydropyrazolo[1,5-a]pyrimidine-3-carboxamide], the MIC (in general, the lowest concentration that inhibits growth of the organism) is ≤ 1 µM.

`Cc1ccc([C@H]2C[C@@H](C(F)(F)F)n3ncc(C(=O)NCC4CCCCC4)c3N2)cc1` (relative stereo) [Example 26, Cis-N-(cyclohexylmethyl)-5-(p-tolyl)-7-(trifluoromethyl)-4,5,6,7-tetrahydropyrazolo[1,5-a]pyrimidine-3-carboxamide] returned an MIC of 1 to 2 µM (≈ 0.42 to 0.841 µg/mL).

As to `CCc1ccc([C@@H]2C[C@H](C(F)(F)F)n3ncc(C(=O)NCc4ccco4)c3N2)cc1` (single isomer, unassigned) [Example 7b], the MIC was > 2 µM.

As to `CCc1ccc([C@H]2C[C@@H](C(F)(F)F)n3ncc(C(=O)NCc4ccc(F)c(C)n4)c3N2)cc1` [Example 105, (5R,7S)-5-(4-ethylphenyl)-N-((5-fluoro-6-methylpyridin-2-yl)methyl)-7-(trifluoromethyl)-4,5,6,7-tetrahydropyrazolo[1,5-a]pyrimidine-3-carboxamide], the MIC is ≤ 1 µM.

Regarding `COc1ccc(CNC(=O)c2cnn3c2NC(c2ccc(C)cc2)CC3C(F)(F)F)cc1` (centres unmarked) [Example 39, N-(4-methoxybenzyl)-5-(p-tolyl)-7-(trifluoromethyl)-4,5,6,7-tetrahydropyrazolo[1,5-a]pyrimidine-3-carboxamide], the MIC is ≤ 1 µM.

For the compound `CCc1ccc(C2CC(C(F)(F)F)n3ncc(C(=O)NCc4cccs4)c3N2)cc1` (centres unmarked) [Example 40, 5-(4-ethylphenyl)-N-(thiophen-2-ylmethyl)-7-(trifluoromethyl)-4,5,6,7-tetrahydropyrazolo[1,5-a]pyrimidine-3-carboxamide], the MIC is ≤ 1 µM.

Take `Cc1ccc(CNC(=O)c2cnn3c2N[C@@H](c2ccc(Br)cc2)C[C@H]3C(F)(F)F)cc1` (relative stereo) [Example 21, Cis-5-(4-bromophenyl)-N-(4-methylbenzyl)-7-(trifluoromethyl)-4,5,6,7-tetrahydropyrazolo[1,5-a]pyrimidine-3-carboxamide]: the MIC was ≤ 1 µM.

With `Cc1ccc([C@H]2C[C@@H](C(F)(F)F)n3ncc(C(=O)NCc4ccc(F)c(F)c4)c3N2)cc1` (relative stereo) [Example 31, Cis-N-(3,4-difluorobenzyl)-5-(p-tolyl)-7-(trifluoromethyl)-4,5,6,7-tetrahydropyrazolo[1,5-a]pyrimidine-3-carboxamide], the MIC is ≤ 1 µM.

For `CCc1ccc([C@H]2C[C@@H](C(F)(F)F)n3ncc(C(=O)NCc4cccn4C)c3N2)cc1` (relative stereo) [Example 10, Cis-5-(4-ethylphenyl)-N-[(1-methyl-1H-pyrrol-2-yl)methyl]-7-(trifluoromethyl)-4,5,6,7-tetrahydropyrazolo[1,5-a]pyrimidine-3-carboxamide], the MIC is 1 to 2 µM (≈ 0.431 to 0.863 µg/mL).

Turning to `COc1ccc(C2CC(C(F)(F)F)n3ncc(C(=O)NCc4ccc5c(c4)OCO5)c3N2)cc1` (centres unmarked) [Example 41, N-(benzo[d][1,3]dioxol-5-ylmethyl)-5-(4-methoxyphenyl)-7-(trifluoromethyl)-4,5,6,7-tetrahydropyrazolo[1,5-a]pyrimidine-3-carboxamide], the MIC is ≤ 1 µM.

As for `Cc1ccc([C@H]2C[C@@H](C(F)(F)F)n3ncc(C(=O)NCc4ccccc4C(F)(F)F)c3N2)cc1` (relative stereo) [Example 43, Cis-5-(p-tolyl)-7-(trifluoromethyl)-N-(2-(trifluoromethyl)benzyl)-4,5,6,7-tetrahydropyrazolo[1,5-a]pyrimidine-3-carboxamide], the minimum inhibitory concentration (MIC) was > 2 µM.

Regarding `Cc1ccc(CNC(=O)c2cnn3c2N[C@@H](c2ccc(C)cc2)C[C@H]3C(F)(F)F)cc1` (relative stereo) [Example 25, Cis-N-(4-methylbenzyl)-5-(p-tolyl)-7-(trifluoromethyl)-4,5,6,7-tetrahydropyrazolo[1,5-a]pyrimidine-3-carboxamide], the MIC was ≤ 1 µM.

For the compound `Cc1ccc(C2CC(C(F)(F)F)n3ncc(C(=O)NCc4ccc5c(c4)OCO5)c3N2)cc1` (centres unmarked) [Example 38, N-(benzo[d][1,3]dioxol-5-ylmethyl)-5-(p-tolyl)-7-(trifluoromethyl)-4,5,6,7-tetrahydropyrazolo[1,5-a]pyrimidine-3-carboxamide], the MIC was ≤ 1 µM.

Take `CCc1ccc([C@H]2C[C@@H](C(F)(F)F)n3ncc(C(=O)NCc4ccc(OC)c(OC)c4)c3N2)cc1` (relative stereo) [Example 47, Cis-N-(3,4-dimethoxybenzyl)-5-(4-ethylphenyl)-7-(trifluoromethyl)-4,5,6,7-tetrahydropyrazolo[1,5-a]pyrimidine-3-carboxamide]: the minimal inhibitory concentration (MIC) was > 2 µM.

With `CCc1ccc([C@H]2C[C@@H](C(F)(F)F)n3ncc(C(=O)NCc4ccoc4)c3N2)cc1` (relative stereo) [Example 12, Cis-5-(4-ethylphenyl)-N-(furan-3-ylmethyl)-7-(trifluoromethyl)-4,5,6,7-tetrahydropyrazolo[1,5-a]pyrimidine-3-carboxamide], the MIC was ≤ 1 µM.

As to `CCc1ccc([C@H]2C[C@@H](C(C)(C)C)n3ncc(C(=O)NCc4ccc(OC)cc4)c3N2)cc1` (relative stereo) [Example 35, Cis-7-(tert-butyl)-5-(4-ethylphenyl)-N-(4-methoxybenzyl)-4,5,6,7-tetrahydropyrazolo[1,5-a]pyrimidine-3-carboxamide], the minimum inhibitory concentration (MIC) is ≤ 1 µM.

As for `Cc1ccc([C@H]2C[C@@H](C(F)(F)F)n3ncc(C(=O)NCc4ccc(N(C)C)cc4)c3N2)cc1` (relative stereo) [Example 49, Cis-N-(4-(dimethylamino)benzyl)-5-(p-tolyl)-7-(trifluoromethyl)-4,5,6,7-tetrahydropyrazolo[1,5-a]pyrimidine-3-carboxamide], the minimal inhibitory concentration (MIC) was > 2 µM.

On to `COc1cccc(CNC(=O)c2cnn3c2N[C@@H](c2ccc(C)cc2)C[C@H]3C(F)(F)F)c1` (relative stereo) [Example 27, Cis-N-(3-methoxybenzyl)-5-(p-tolyl)-7-(trifluoromethyl)-4,5,6,7-tetrahydropyrazolo[1,5-a]pyrimidine-3-carboxamide], for which the MIC is 1 to 2 µM (≈ 0.444 to 0.889 µg/mL).

As for `CCc1ccc([C@H]2C[C@@H](C(F)(F)F)n3ncc(C(=O)NCc4cccc(C(F)(F)F)c4)c3N2)cc1` (relative stereo) [Example 14, Cis-5-(4-ethylphenyl)-7-(trifluoromethyl)-N-{[3-(trifluoromethyl)phenyl]methyl}-4,5,6,7-tetrahydropyrazolo[1,5-a]pyrimidine-3-carboxamide], the MIC is 1 to 2 µM (≈ 0.496 to 0.993 µg/mL).

On to `CCc1ccc([C@H]2C[C@@H](C(F)(F)F)n3ncc(C(=O)NCc4ccc(C)o4)c3N2)cc1` (relative stereo) [Example 4, Cis-5-(4-ethylphenyl)-N-((5-methylfuran-2-yl)methyl)-7-(trifluoromethyl)-4,5,6,7-tetrahydropyrazolo[1,5-a]pyrimidine-3-carboxamide], for which the MIC is ≤ 1 µM.

In the case of `COc1ccc(CNC(=O)c2cnn3c2NC(c2ccc(OC)cc2)CC3C(F)(F)F)cc1` (centres unmarked) [Example 54, N-(4-methoxybenzyl)-5-(4-methoxyphenyl)-7-(trifluoromethyl)-4,5,6,7-tetrahydropyrazolo[1,5-a]pyrimidine-3-carboxamide], the MIC is > 2 µM.

For `CCc1ccc([C@H]2C[C@@H](C(F)(F)F)n3ncc(C(=O)NCc4ccccc4Cl)c3N2)cc1` (relative stereo) [Example 73, Cis-N-(2-chlorobenzyl)-5-(4-ethylphenyl)-7-(trifluoromethyl)-4,5,6,7-tetrahydropyrazolo[1,5-a]pyrimidine-3-carboxamide], the MIC was in the range of 1 to 2 µM (≈ 0.463 to 0.926 µg/mL).

`CCc1ccc([C@H]2C[C@@H](C(F)(F)F)n3ncc(C(=O)NCc4ccc5c(c4)OCCO5)c3N2)cc1` (relative stereo) [Example 18, Cis-N-(2,3-dihydro-1,4-benzodioxin-6-ylmethyl)-5-(4-ethylphenyl)-7-(trifluoromethyl)-4,5,6,7-tetrahydropyrazolo[1,5-a]pyrimidine-3-carboxamide] registered an MIC of 1 to 2 µM (≈ 0.486 to 0.973 µg/mL).

As for `Cc1ccc([C@H]2C[C@@H](C(F)(F)F)n3ncc(C(=O)NCc4ccc5c(c4)OCCO5)c3N2)cc1` (relative stereo) [Example 50, Cis-N-((2,3-dihydrobenzo[b][1,4]dioxin-6-yl)methyl)-5-(p-tolyl)-7-(trifluoromethyl)-4,5,6,7-tetrahydropyrazolo[1,5-a]pyrimidine-3-carboxamide], the MIC is > 2 µM.

Regarding `CCc1ccc([C@H]2C[C@@H](C(F)(F)F)n3ncc(C(=O)NCc4ccccc4C(F)(F)F)c3N2)cc1` (relative stereo) [Example 44, Cis-5-(4-ethylphenyl)-7-(trifluoromethyl)-N-(2-(trifluoromethyl)benzyl)-4,5,6,7-tetrahydropyrazolo[1,5-a]pyrimidine-3-carboxamide], the MIC is > 2 µM.

Regarding `CCc1ccc([C@H]2C[C@@H](C(F)(F)F)n3ncc(C(=O)NCc4ccc(C)c(F)c4)c3N2)cc1` (relative stereo) [Example 64, Cis-5-(4-ethylphenyl)-N-(3-fluoro-4-methylbenzyl)-7-(trifluoromethyl)-4,5,6,7-tetrahydropyrazolo[1,5-a]pyrimidine-3-carboxamide], the MIC was ≤ 1 µM.

For the origin of these results see patent US20140038989A1, “TETRAHYDROPYRAZOLO [1,5-A] PYRIMIDINE AS ANTI-TUBERCULOSIS COMPOUNDS” (Glaxo Group Limited, priority 2011, published 2014).
